# Values of other authors, collected in patent US20120245552A1, “Combination Therapy” (POP TEST CORTISOL LLC, priority 2011, published 2012).
# Columns and labels:
# [1] = system: other related steroidal hormone receptors (such as those for estrogen and progesterone); conditions: cited from earlier work
# [2] = phase I and phase II clinical trials; cited from earlier work
# [3] = molecular target: T1, GCR (Homo sapiens, UniProt P04150); conditions: cited from earlier work
# T1 sequence (P04150 1-777): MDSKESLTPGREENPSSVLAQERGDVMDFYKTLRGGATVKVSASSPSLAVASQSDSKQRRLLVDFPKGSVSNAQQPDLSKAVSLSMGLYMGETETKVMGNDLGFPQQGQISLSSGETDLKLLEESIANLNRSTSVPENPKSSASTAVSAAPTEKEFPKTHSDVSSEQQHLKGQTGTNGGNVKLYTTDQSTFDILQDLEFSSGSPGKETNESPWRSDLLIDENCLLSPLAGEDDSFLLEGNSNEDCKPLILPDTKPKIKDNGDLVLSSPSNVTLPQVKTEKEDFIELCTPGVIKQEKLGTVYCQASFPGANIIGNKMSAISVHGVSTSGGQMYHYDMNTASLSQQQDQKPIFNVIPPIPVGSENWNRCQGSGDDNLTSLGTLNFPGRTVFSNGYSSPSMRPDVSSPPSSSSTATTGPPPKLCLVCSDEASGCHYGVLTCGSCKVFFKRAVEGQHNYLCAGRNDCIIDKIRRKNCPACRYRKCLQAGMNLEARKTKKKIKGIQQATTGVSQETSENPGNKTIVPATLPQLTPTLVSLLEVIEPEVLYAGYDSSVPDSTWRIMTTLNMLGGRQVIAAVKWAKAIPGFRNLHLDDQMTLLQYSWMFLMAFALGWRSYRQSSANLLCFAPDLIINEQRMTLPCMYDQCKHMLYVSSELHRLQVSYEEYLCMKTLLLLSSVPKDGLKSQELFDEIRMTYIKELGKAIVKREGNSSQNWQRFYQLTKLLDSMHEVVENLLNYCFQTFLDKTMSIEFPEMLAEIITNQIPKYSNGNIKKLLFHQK
smiles,measurement,setting,value
"CC#C[C@]1(O)CC[C@H]2[C@@H]3CCC4=CC(=O)CCC4=C3[C@@H](c3ccc4c(c3)OCO4)C[C@@]21C [ORG 34517, (11β,17β)-11-(1,3-benzodioxol-5-yl)-17-hydroxy-17-(1-propynyl)estra-4,9-dien-3-one]",cross-binding to other related steroidal hormone receptors,[1],without significant cross-binding
same,significant toxicities and side effects,[2],none were identified
same,GCR binding affinity,[3],high
